{"source": "ChEMBL document CHEMBL4665764", "about": "“Synthesis and Biological Evaluation of Celastrol Derivatives as Potential Immunosuppressive Agents” (J Nat Prod, 2020)", "key": {"[1]": {"test": "Cytotoxicity against BALB/c mouse T cell assessed as reduction in cell viability after 48 hrs by CCK8 assay", "format": "tissue-based, T cell line", "conditions": "BALB/c mouse T cells"}, "[2]": {"test": "Antiproliferative activity against Con A-induced BALB/c mouse T cell after 48 hrs by CCK8 assay", "format": "functional, tissue-based, T cell line"}, "[3]": {"test": "Selectivity index, ratio of CC50 for cytotoxicity against BALB/c mouse T cell to IC50 for antiproliferative activity against Con A-induced BALB/c mouse T cell", "parameters": "species or system T cell line"}, "T cell line [4]": {"test_system": "T cell line", "test": "Induction of apoptosis in BALB/c mouse T cell assessed as increase in Bax at >=1 uM by Western blot analysis", "format": "functional", "conditions": "dose microM >=1"}, "T cell line [5]": {"test_system": "T cell line", "test": "Induction of apoptosis in BALB/c mouse T cell assessed as increase in Bcl2 at >=1 uM by Western blot analysis", "format": "functional", "conditions": "dose microM >=1"}, "T cell line [6]": {"test_system": "T cell line", "test": "Induction of mitochondrial membrane disruption in BALB/c mouse T cell assessed as increase in cytochrome c release from mitochondria to cytosol at >=1 uM by Western blot analysis", "format": "functional", "conditions": "dose microM >=1"}, "T cell line [7]": {"test_system": "T cell line", "test": "Induction of apoptosis in BALB/c mouse T cell assessed as assessed as increase in caspase 3 >=1 uM", "format": "functional, tissue-based", "conditions": "dose microM >=1"}, "T cell line [8]": {"test_system": "T cell line", "test": "Induction of apoptosis in BALB/c mouse T cell assessed as assessed as increase in caspase 9 >=1 uM", "format": "functional, tissue-based", "conditions": "dose microM >=1"}, "[9]": {"test": "Anti-inflammatory activity in BALB/c mouse T cell assessed as assessed as IL-4 level at 0.01 uM after 48 hrs by ELISA (reference value: 167.8 +/- 9.4 pg/ml)", "format": "functional, T cell line"}, "[10]": {"test": "Anti-inflammatory activity in BALB/c mouse T cell assessed as assessed as IL-4 level at 0.1 uM after 48 hrs by ELISA (reference value: 167.8 +/- 9.4 pg/ml)", "format": "functional, T cell line"}, "[11]": {"test": "Anti-inflammatory activity in BALB/c mouse T cell assessed as assessed as IL-4 level at 1 uM after 48 hrs by ELISA (reference value: 167.8 +/- 9.4 pg/ml)", "format": "functional, T cell line"}, "[12]": {"test": "Anti-inflammatory activity in BALB/c mouse T cell assessed as assessed as TNF-alpha level at 0.01 uM after 48 hrs by ELISA (reference value: 375.8 +/- 19.6 pg/ml)", "format": "functional, T cell line"}, "[13]": {"test": "Anti-inflammatory activity in BALB/c mouse T cell assessed as assessed as TNF-alpha level at 0.1 uM after 48 hrs by ELISA (reference value: 375.8 +/- 19.6 pg/ml)", "format": "functional, T cell line"}, "[14]": {"test": "Anti-inflammatory activity in BALB/c mouse T cell assessed as assessed as TNF-alpha level at 1 uM after 48 hrs by ELISA (reference value: 375.8 +/- 19.6 pg/ml)", "format": "functional, T cell line"}, "[15]": {"test": "Anti-inflammatory activity in BALB/c mouse T cell assessed as assessed as IL-2 level at 0.01 uM after 48 hrs by ELISA (reference value: 152.9 +/- 8.7 pg/ml)", "format": "functional, T cell line"}, "[16]": {"test": "Anti-inflammatory activity in BALB/c mouse T cell assessed as assessed as IL-2 level at 0.1 uM after 48 hrs by ELISA (reference value: 152.9 +/- 8.7 pg/ml)", "format": "functional, T cell line"}, "[17]": {"test": "Anti-inflammatory activity in BALB/c mouse T cell assessed as assessed as IL-2 level at 1 uM after 48 hrs by ELISA (reference value: 152.9 +/- 8.7 pg/ml)", "format": "functional, T cell line"}, "[18]": {"molecular_target": "Proto-oncogene tyrosine-protein kinase LCK (Mus musculus) (UniProt P06240)", "sequence (P06240 2-509 limits assumed)": "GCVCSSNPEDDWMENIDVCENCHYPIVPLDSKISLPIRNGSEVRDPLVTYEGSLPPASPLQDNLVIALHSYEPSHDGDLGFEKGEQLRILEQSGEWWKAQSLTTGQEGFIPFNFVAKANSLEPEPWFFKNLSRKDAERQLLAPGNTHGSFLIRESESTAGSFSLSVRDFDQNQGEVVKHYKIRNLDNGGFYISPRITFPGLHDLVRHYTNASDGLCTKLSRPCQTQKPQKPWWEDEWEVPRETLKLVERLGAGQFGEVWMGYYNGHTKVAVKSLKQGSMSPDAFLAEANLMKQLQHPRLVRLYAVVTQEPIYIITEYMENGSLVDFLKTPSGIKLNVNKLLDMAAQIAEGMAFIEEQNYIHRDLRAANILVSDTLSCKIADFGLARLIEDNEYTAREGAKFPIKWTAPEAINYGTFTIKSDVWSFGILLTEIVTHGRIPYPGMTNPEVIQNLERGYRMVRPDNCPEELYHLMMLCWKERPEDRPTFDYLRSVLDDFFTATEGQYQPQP", "test": "Inhibition of LCK phosphorylation in Con-A induced BALB/c mouse T cell by Western blot analysis", "format": "tissue-based", "conditions": "T cell line"}, "[19]": {"molecular_target": "T1, Tyrosine-protein kinase ZAP-70 (Mus musculus) (UniProt P43404)", "T1 sequence (whole entry)": "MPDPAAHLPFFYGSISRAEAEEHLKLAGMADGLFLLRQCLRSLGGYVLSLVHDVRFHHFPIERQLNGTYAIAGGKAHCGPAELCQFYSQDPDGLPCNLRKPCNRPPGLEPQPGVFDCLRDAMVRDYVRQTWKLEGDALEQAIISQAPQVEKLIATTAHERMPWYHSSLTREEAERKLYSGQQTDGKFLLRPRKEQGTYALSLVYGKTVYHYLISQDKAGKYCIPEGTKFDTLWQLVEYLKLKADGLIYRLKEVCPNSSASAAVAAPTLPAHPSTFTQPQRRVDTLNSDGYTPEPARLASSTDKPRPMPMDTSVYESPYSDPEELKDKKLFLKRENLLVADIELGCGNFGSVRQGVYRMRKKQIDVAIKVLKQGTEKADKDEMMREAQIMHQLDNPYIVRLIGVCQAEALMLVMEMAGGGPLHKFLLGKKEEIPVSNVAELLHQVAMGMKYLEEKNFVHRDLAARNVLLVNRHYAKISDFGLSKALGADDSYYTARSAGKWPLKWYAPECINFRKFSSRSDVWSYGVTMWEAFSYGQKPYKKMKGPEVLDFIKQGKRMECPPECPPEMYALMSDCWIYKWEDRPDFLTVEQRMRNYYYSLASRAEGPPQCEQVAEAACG", "test": "Inhibition of ZAP70 phosphorylation in Con-A induced BALB/c mouse T cell by Western blot analysis", "format": "tissue-based", "conditions": "T cell line"}, "[20]": {"test": "Induction of apoptosis in Con A-induced BALB/c mouse T cell assessed as early apoptotic cells at 0.01 uM after 48 hrs by Annexin V-FITC/propidium iodide staining based FACS assay (reference value: 26.5%)", "format": "functional, T cell line"}, "[21]": {"test": "Induction of apoptosis in Con A-induced BALB/c mouse T cell assessed as late apoptotic cells at 0.01 uM after 48 hrs by Annexin V-FITC/propidium iodide staining based FACS assay (reference value: 7.3%)", "format": "functional, T cell line"}, "[22]": {"test": "Induction of apoptosis in Con A-induced BALB/c mouse T cell assessed as necrotic cells at 0.01 uM after 48 hrs by Annexin V-FITC/propidium iodide staining based FACS assay (reference value: 2.9%)", "format": "functional, T cell line"}, "[23]": {"test": "Induction of apoptosis in Con A-induced BALB/c mouse T cell assessed as viable cells at 0.01 uM after 48 hrs by Annexin V-FITC/propidium iodide staining based FACS assay (reference value: 63.3%)", "format": "functional, T cell line"}, "[24]": {"test": "Induction of apoptosis in Con A-induced BALB/c mouse T cell assessed as late apoptotic cells at 0.1 uM after 48 hrs by Annexin V-FITC/propidium iodide staining based FACS assay (reference value: 7.3%)", "format": "functional, T cell line"}, "[25]": {"test": "Induction of apoptosis in Con A-induced BALB/c mouse T cell assessed as necrotic cells at 0.1 uM after 48 hrs by Annexin V-FITC/propidium iodide staining based FACS assay (reference value: 2.9%)", "format": "functional, T cell line"}, "[26]": {"test": "Induction of apoptosis in Con A-induced BALB/c mouse T cell assessed as viable cells at 0.1 uM after 48 hrs by Annexin V-FITC/propidium iodide staining based FACS assay (reference value: 63.3%)", "format": "functional, T cell line"}, "[27]": {"test": "Induction of apoptosis in Con A-induced BALB/c mouse T cell assessed as early apoptotic cells at 0.1 uM after 48 hrs by Annexin V-FITC/propidium iodide staining based FACS assay (reference value: 26.5%)", "format": "functional, T cell line"}, "[28]": {"test": "Induction of apoptosis in Con A-induced BALB/c mouse T cell assessed as early apoptotic cells at 1 uM after 48 hrs by Annexin V-FITC/propidium iodide staining based FACS assay (reference value: 26.5%)", "format": "functional, T cell line"}, "[29]": {"test": "Induction of apoptosis in Con A-induced BALB/c mouse T cell assessed as late apoptotic cells at 1 uM after 48 hrs by Annexin V-FITC/propidium iodide staining based FACS assay (reference value: 7.3%)", "format": "functional, T cell line"}, "[30]": {"test": "Induction of apoptosis in Con A-induced BALB/c mouse T cell assessed as necrotic cells at 1 uM after 48 hrs by Annexin V-FITC/propidium iodide staining based FACS assay (reference value: 2.9%)", "format": "functional, T cell line"}, "[31]": {"test": "Induction of apoptosis in Con A-induced BALB/c mouse T cell assessed as viable cells at 1 uM after 48 hrs by Annexin V-FITC/propidium iodide staining based FACS assay (reference value: 63.3%)", "format": "functional, T cell line"}}, "note": "Active and inactive are the calls of the source. The calls are words filed in the database; no cut-off is given here."}
{"smiles": "CNC(=O)[C@]1(C)CC[C@]2(C)CC[C@]3(C)C4=CC=C5C(=CC(=O)C(O)=C5C)[C@]4(C)CC[C@@]3(C)[C@@H]2C1", "values": [{"measurement": "CC50 at 48 h", "setting": "[1]", "result": 1200, "unit": "nM"}, {"measurement": "IC50", "setting": "[2]", "result": 25, "unit": "nM"}, {"measurement": "Ratio CC50/IC50", "setting": "[3]", "result": 47.7}, {"measurement": "Activity", "setting": "T cell line [4]", "result": "Active"}, {"measurement": "Activity", "setting": "T cell line [5]", "result": "Active"}, {"measurement": "Activity", "setting": "T cell line [6]", "result": "Active"}, {"measurement": "Activity", "setting": "T cell line [7]", "result": "Active"}, {"measurement": "Activity", "setting": "T cell line [8]", "result": "Active"}, {"measurement": "Activity", "setting": "[9]", "result": 135.2, "unit": "pg/mL"}, {"measurement": "Activity", "setting": "[10]", "result": 78.2, "unit": "pg/mL"}, {"measurement": "Activity", "setting": "[11]", "result": 39.1, "unit": "pg/mL"}, {"measurement": "Activity", "setting": "[12]", "result": 264.5, "unit": "pg/mL"}, {"measurement": "Activity", "setting": "[13]", "result": 204.1, "unit": "pg/mL"}, {"measurement": "Activity", "setting": "[14]", "result": 142.9, "unit": "pg/mL"}, {"measurement": "Activity", "setting": "[15]", "result": 128.7, "unit": "pg/mL"}, {"measurement": "Activity", "setting": "[16]", "result": 79.1, "unit": "pg/mL"}, {"measurement": "Activity", "setting": "[17]", "result": 51.1, "unit": "pg/mL"}, {"measurement": "inhibition", "setting": "[18]", "result": "Dose-dependent effect"}, {"measurement": "inhibition", "setting": "[19]", "result": "Dose-dependent effect"}, {"measurement": "Activity", "setting": "[20]", "result": 27.9, "unit": "%"}, {"measurement": "Activity", "setting": "[21]", "result": 7, "unit": "%"}, {"measurement": "Activity", "setting": "[22]", "result": 1.7, "unit": "%"}, {"measurement": "Activity", "setting": "[23]", "result": 63.4, "unit": "%"}, {"measurement": "Activity", "setting": "[24]", "result": 9.5, "unit": "%"}, {"measurement": "Activity", "setting": "[25]", "result": 0.5, "unit": "%"}, {"measurement": "Activity", "setting": "[26]", "result": 46.3, "unit": "%"}, {"measurement": "Activity", "setting": "[27]", "result": 43.6, "unit": "%"}, {"measurement": "Activity", "setting": "[28]", "result": 56, "unit": "%"}, {"measurement": "Activity", "setting": "[29]", "result": 8.5, "unit": "%"}, {"measurement": "Activity", "setting": "[30]", "result": 1, "unit": "%"}, {"measurement": "Activity", "setting": "[31]", "result": 34.5, "unit": "%"}]}
